Measured values taken from the NIST ThermoML archive (doi:10.1016/j.fluid.2012.11.007).
Values joined by “and” are separate entries in the source; they are usually repeats but may differ in a detail not shown here. Identical values can stand only once. Numbers after ± are expanded uncertainties.

How the values were obtained:
[1] = Crystal; DTA
[2] = Molar enthalpy of transition or fusion; details: Crystal; DSC

Row | SMILES | Normal melting temperature [1] [°C] | Molar enthalpy of transition or fusion [2]
1 | CCCCn1cc[n+](C)c1.[Cl-] [1-butyl-3-methylimidazolium chloride] | 69.80 ± 0.5 | 6.1 kcal/mol and 6.02 kcal/mol
2 | CCn1cc[n+](C)c1.[Cl-] [1-ethyl-3-methylimidazolium chloride] | 88.60 ± 0.5 | 3.67 ± 0.127 kcal/mol
